Data set [1] has as its system Plasmodium falciparum. As to the kind of experiment: NOVARTIS: Inhibition of Plasmodium falciparum 3D7 (drug-susceptible) proliferation in erythrocyte-based infection assay. The format is functional, organism-based. Conditions: Plasmodium falciparum, 3D7.
In data set [2] the test system is Plasmodium falciparum. Kind of data set: NOVARTIS: Inhibition of Plasmodium falciparum W2 (drug-resistant) proliferation in erythrocyte-based infection assay. The format is functional, organism-based. The conditions noted are these: Plasmodium falciparum, W2; read-out: EC50.
The nature of data set [3]: NOVARTIS: Cytotoxicity against human hepatocellular carcinoma cell line (Huh7). The format is toxicity, cell-based, Huh-7. The conditions noted are these: Huh7 cells (hepatocellular carcinoma cell line).

By EC50 is commonly meant the concentration at which the effect is half-maximal. One may read the CC50 as the concentration that lowers cell viability or growth by half.

SMILES strings stand for the structures.

As for `CCOC(=O)C1=C(C)NC2=C(C(=O)CC(c3ccc(Cl)cc3)C2)C1c1ccc(F)cc1` (stereo not drawn), the EC50 in the data set on Plasmodium falciparum [1] was 95 nM; in the data set with Plasmodium falciparum [2], 42.8 nM. Moreover, the half-maximal cytotoxic concentration (CC50) in data set [3] was more than 100000 nM.

`COC(=O)C1=C(C)NC2=C(C(=O)CC(c3ccc(OC)c(OC)c3)C2)C1c1cccc(O)c1` (stereo not drawn): the EC50 in the data set with Plasmodium falciparum [1] amounted to 92 nM; in the data set on Plasmodium falciparum [2], 50 nM. For the same compound, in data set [3], the half-maximal cytotoxic concentration (CC50) is more than 100000 nM.

As for `Cc1cc(NC(=O)C2c3ccccc3C(=O)N(CC(C)C)C2c2cccs2)no1` (stereo not drawn), the values for the 50% effective concentration (EC50) in the data set on Plasmodium falciparum [1] and in the data set on Plasmodium falciparum [2] were 85.6 nM and 45.3 nM, respectively. Besides, in data set [3], the CC50 was more than 100000 nM.

Turning to `CCOCCCNc1nc2cc(OC)c(OC)cc2c2nc(-c3ccccc3)nn12`, the EC50 with Plasmodium falciparum [1] stood at 83.1 nM; in the data set on Plasmodium falciparum [2], 56.3 nM. This compound displayed a half-maximal cytotoxic concentration (CC50) in data set [3] of more than 100000 nM.

Consider `COc1ccc(C2CC(=O)C3=C(C2)NC(C)=C(C(=O)OC2CCCC2)C3c2ccc(F)cc2)cc1` (stereo not drawn), for which the EC50 with Plasmodium falciparum [1] stood at 98.6 nM; in the data set with Plasmodium falciparum [2], 41.6 nM. In data set [3], this compound registered a half-maximal cytotoxic concentration (CC50) of more than 100000 nM.

Turning to `Cc1nc(-c2ccccc2)nc(C(=O)N2CCN(C(=O)NC3CCCCC3)C(C)C2)c1C(=O)OC(C)C` (stereo not drawn), the EC50 with Plasmodium falciparum [1] worked out at 84.4 nM; in the data set on Plasmodium falciparum [2] it was 41.7 nM. This compound yielded a CC50 in data set [3] of more than 100000 nM.

Take `CCCOC(=O)C1=C(C)NC2=C(C(=O)CC(c3ccc(OC)c(OC)c3)C2)C1c1ccc(Br)cc1` (stereo not drawn): the 50% effective concentration (EC50) in the data set on Plasmodium falciparum [1] is 37.7 nM; in the data set on Plasmodium falciparum [2] it was 46.9 nM. In data set [3], this compound came in with a CC50 of more than 100000 nM.

Turning to `O=C(NCCc1nc(-c2ccncc2)n[nH]1)C12CC3CC(CC(C3)C1)C2`, the values for the EC50 in the data set on Plasmodium falciparum [1] and in the data set on Plasmodium falciparum [2] were more than 12500 nM and 44.9 nM, respectively. Moreover, the CC50 in data set [3] is more than 100000 nM.

Turning to `CCOC(=O)C1=C(CC)NC2=C(C(=O)CC(C)(C)C2)C1c1ccc(Cl)cc1Cl` (stereo not drawn), the half-maximal effective concentration (EC50) amounted to 208 nM in the data set on Plasmodium falciparum [1] and 45.9 nM in the data set with Plasmodium falciparum [2]. The compound further had a CC50 in data set [3] of more than 100000 nM.

Turning to `c1ccc([B-](c2ccccc2)(c2ccccc2)c2ccccc2)cc1`, the values for the concentration giving a half-maximal response (EC50) with Plasmodium falciparum [1] and in the data set with Plasmodium falciparum [2] were 124 nM and 44.8 nM, respectively. This compound came in with a cytotoxic concentration (CC50) in data set [3] of more than 100000 nM.

Turning to `CCC(=O)Nc1cc(NC(=O)CSc2nc(C)c(CC)c(O)n2)ccc1C`, the half-maximal effective concentration (EC50) in the data set on Plasmodium falciparum [1] is more than 1250 nM; in the data set with Plasmodium falciparum [2], 1.61 nM. The compound further came in with a CC50 in data set [3] of 3920 nM.

For the compound `Cc1cc(Nc2ccc(Br)c(C)c2)n2nc(C)nc2n1`, the EC50 was 53 nM in the data set with Plasmodium falciparum [1] and 45.8 nM in the data set on Plasmodium falciparum [2]. Also, in data set [3], the CC50 is more than 100000 nM.

`CCCOC(=O)C1=C(C)NC2=C(C(=O)CC(c3ccc(OC)c(OC)c3)C2)C1c1ccccc1Cl` (stereo not drawn): the EC50 worked out at 66.2 nM in the data set on Plasmodium falciparum [1] and 44.8 nM in the data set with Plasmodium falciparum [2]. Also, in data set [3], the CC50 was more than 100000 nM.

Regarding `COc1ccc(C2CC3=NC(C)=C(C(=O)OC(C)C)C(c4ccccc4OC)C3=C(O)C2)cc1OC` (stereo not drawn), the EC50 in the data set with Plasmodium falciparum [1] stood at 91.9 nM; with Plasmodium falciparum [2] it was 39.8 nM. Besides, the half-maximal cytotoxic concentration (CC50) in data set [3] is more than 100000 nM.

In the case of `C[n+]1ccc(/C=C/c2ccccc2F)c2ccccc21`, the 50% effective concentration (EC50) with Plasmodium falciparum [1] is 65.3 nM; in the data set on Plasmodium falciparum [2] it was less than 5.24 nM. Also, the half-maximal cytotoxic concentration (CC50) in data set [3] is more than 10000 nM.

Consider `CCOC(=O)C1=C(CC)NC2=C(C(=O)CC(C)(C)C2)C1c1ccc(Br)cc1` (stereo not drawn), for which the EC50 came out at 408 nM in the data set with Plasmodium falciparum [1] and 44.1 nM in the data set on Plasmodium falciparum [2]. Besides, the CC50 in data set [3] was more than 100000 nM.

In the case of `CCOC(=O)C1=C(C)NC2=C(C(=O)CC(c3ccc(OC)cc3)C2)C1c1cccc(F)c1` (stereo not drawn), the EC50 in the data set on Plasmodium falciparum [1] stood at 137 nM; in the data set on Plasmodium falciparum [2], 50.4 nM. For the same compound, the half-maximal cytotoxic concentration (CC50) in data set [3] was more than 100000 nM.

As for `O=S(=O)(ON=C1CCCc2sc(Cl)cc21)c1ccccc1`, the EC50 in the data set on Plasmodium falciparum [1] was found to be 158 nM; in the data set on Plasmodium falciparum [2] it was 40.9 nM. The compound further yielded a CC50 in data set [3] of more than 100000 nM.

In the case of `NC(=S)NN=Cc1cc([N+](=O)[O-])ccc1O`, the EC50 turned out to be 68.6 nM with Plasmodium falciparum [1] and 52 nM with Plasmodium falciparum [2]. The same compound had a CC50 in data set [3] of more than 100000 nM.

Turning to `Cc1cccc(Nc2c3c(c(C#N)c4nc5ccccc5n24)CCC3)c1`, the 50% effective concentration (EC50) is 92.6 nM in the data set on Plasmodium falciparum [1] and 51.8 nM in the data set on Plasmodium falciparum [2]. The same compound displayed a CC50 in data set [3] of more than 100000 nM.

For the compound `OC(Cn1cnc(-c2ccccc2)c1-c1ccccc1)Cn1c2ccc(Br)cc2c2cc(Br)ccc21` (stereo not drawn), the half-maximal effective concentration (EC50) is 952 nM in the data set with Plasmodium falciparum [1] and 53.2 nM with Plasmodium falciparum [2]. This compound also registered a CC50 in data set [3] of more than 100000 nM.

With `CC(C)(C)NC(=S)NN=CC=NNC(=S)NC(C)(C)C`, the EC50 in the data set on Plasmodium falciparum [1] came out at 210 nM; in the data set on Plasmodium falciparum [2], 56.9 nM. The compound further came in with a CC50 in data set [3] of more than 100000 nM.

As to `CCCOC(=O)C1=C(C)NC2=C(C(=O)CC(c3ccc(OC)cc3)C2)C1c1ccc([N+](=O)[O-])cc1` (stereo not drawn), the EC50 in the data set with Plasmodium falciparum [1] stood at 281 nM; with Plasmodium falciparum [2], 51.4 nM. In addition, in data set [3], the CC50 is more than 100000 nM.

As for `CC(Cc1ccccc1)NCc1ccccc1O` (stereo not drawn), the EC50 in the data set on Plasmodium falciparum [1] was 525 nM; in the data set with Plasmodium falciparum [2], less than 4.93 nM. This compound had a CC50 in data set [3] of more than 10000 nM.

For the compound `CCOC(=O)C1=C(C)NC2=C(C(=O)CC(c3ccc(OC)c(OC)c3)C2)C1c1ccccc1OC` (stereo not drawn), the EC50 was 74.1 nM in the data set with Plasmodium falciparum [1] and 49.2 nM in the data set with Plasmodium falciparum [2]. This compound showed a CC50 in data set [3] of more than 100000 nM.

As to `CCOC(=O)C1=C(C)NC2=C(C(=O)CC(c3ccc(Cl)cc3)C2)C1c1ccccc1Cl` (stereo not drawn), the EC50 with Plasmodium falciparum [1] is 44.2 nM; in the data set with Plasmodium falciparum [2], 40.8 nM. The same compound registered a CC50 in data set [3] of more than 100000 nM.

Values taken from ChEMBL document CHEMBL1156829 (Proc Natl Acad Sci U S A, 2008).
